Numbers after ± are expanded uncertainties.

Results on 23 compounds are retold here after the NIST ThermoML archive (doi:10.1016/j.jct.2014.12.023).

The nature of this data set: activity coefficient (dimensionless); of the first substance listed, at infinite dilution; xn = mol fraction of the nth substance listed. Conditions: 87.4 kPa, Liquid, Chromatography, x1 = 0.

`CO` [methanol] + O=S(=O)([N-]S(=O)(=O)C(F)(F)F)C(F)(F)F.O=S(=O)([N-]S(=O)(=O)C(F)(F)F)C(F)(F)F.c1ccc2cc(C[N+]3(CCCCCCCCC[N+]4(Cc5ccc6ccccc6c5)CCCC4)CCCC3)ccc2c1: under “313 K”, the activity coefficient turned out to be 0.821 ± 0.038.
Regarding `CC#N` [acetonitrile] + O=S(=O)([N-]S(=O)(=O)C(F)(F)F)C(F)(F)F.O=S(=O)([N-]S(=O)(=O)C(F)(F)F)C(F)(F)F.c1ccc2cc(C[N+]3(CCCCCCCCC[N+]4(Cc5ccc6ccccc6c5)CCCC4)CCCC3)ccc2c1, the activity coefficient runs as follows: (313 K) 0.339 ± 0.028; (323 K) 0.341 ± 0.028; (333 K) 0.349 ± 0.028; (343 K) 0.372 ± 0.029.
As to `CCCCCC` [hexane] + O=S(=O)([N-]S(=O)(=O)C(F)(F)F)C(F)(F)F.O=S(=O)([N-]S(=O)(=O)C(F)(F)F)C(F)(F)F.c1ccc2cc(C[N+]3(CCCCCCCCC[N+]4(Cc5ccc6ccccc6c5)CCCC4)CCCC3)ccc2c1, the activity coefficient amounted to 4.73 ± 0.24 (313 K) and 3.9 ± 0.2 (323 K).
For `CCCO` [propan-1-ol] + O=S(=O)([N-]S(=O)(=O)C(F)(F)F)C(F)(F)F.O=S(=O)([N-]S(=O)(=O)C(F)(F)F)C(F)(F)F.c1ccc2cc(C[N+]3(CCCCCCCCC[N+]4(Cc5ccc6ccccc6c5)CCCC4)CCCC3)ccc2c1, the activity coefficient is 1.33 ± 0.083 (313 K), 1.07 ± 0.057 (323 K), 1.02 ± 0.045 (333 K) and 1.01 ± 0.044 (343 K).
The corresponding values for `CCO` [ethanol] + O=S(=O)([N-]S(=O)(=O)C(F)(F)F)C(F)(F)F.O=S(=O)([N-]S(=O)(=O)C(F)(F)F)C(F)(F)F.c1ccc2cc(C[N+]3(CCCCCCCCC[N+]4(Cc5ccc6ccccc6c5)CCCC4)CCCC3)ccc2c1 are 1 ± 0.044, 1.01 ± 0.045, 0.937 ± 0.043 and 0.891 ± 0.041.
The corresponding values for `O=C1CCCCC1` [cyclohexanone] + O=S(=O)([N-]S(=O)(=O)C(F)(F)F)C(F)(F)F.O=S(=O)([N-]S(=O)(=O)C(F)(F)F)C(F)(F)F.c1ccc2cc(C[N+]3(CCCCCCCCC[N+]4(Cc5ccc6ccccc6c5)CCCC4)CCCC3)ccc2c1 are 0.998 ± 0.044, 0.998 ± 0.044, 0.999 ± 0.044 and 1 ± 0.044.
`ClC(Cl)(Cl)Cl` [tetrachloromethane] + O=S(=O)([N-]S(=O)(=O)C(F)(F)F)C(F)(F)F.O=S(=O)([N-]S(=O)(=O)C(F)(F)F)C(F)(F)F.c1ccc2cc(C[N+]3(CCCCCCCCC[N+]4(Cc5ccc6ccccc6c5)CCCC4)CCCC3)ccc2c1: the activity coefficient reads like this: (313 K) 1.45 ± 0.07; (323 K) 1.47 ± 0.071; (333 K) 1.51 ± 0.073; (343 K) 1.52 ± 0.074.
The corresponding values for `C1CCCCC1` [cyclohexane] + O=S(=O)([N-]S(=O)(=O)C(F)(F)F)C(F)(F)F.O=S(=O)([N-]S(=O)(=O)C(F)(F)F)C(F)(F)F.c1ccc2cc(C[N+]3(CCCCCCCCC[N+]4(Cc5ccc6ccccc6c5)CCCC4)CCCC3)ccc2c1 are 3.83 ± 0.22, 3.35 ± 0.19, 2.98 ± 0.17 and 2.49 ± 0.16.
`Cc1ccc(C)cc1` [1,4-dimethylbenzene] + O=S(=O)([N-]S(=O)(=O)C(F)(F)F)C(F)(F)F.O=S(=O)([N-]S(=O)(=O)C(F)(F)F)C(F)(F)F.c1ccc2cc(C[N+]3(CCCCCCCCC[N+]4(Cc5ccc6ccccc6c5)CCCC4)CCCC3)ccc2c1: the activity coefficient reads like this: (313 K) 0.881 ± 0.04; (323 K) 0.9 ± 0.041; (333 K) 0.929 ± 0.042; (343 K) 0.992 ± 0.045.
The corresponding values for `CCOC(C)=O` [ethyl acetate] + O=S(=O)([N-]S(=O)(=O)C(F)(F)F)C(F)(F)F.O=S(=O)([N-]S(=O)(=O)C(F)(F)F)C(F)(F)F.c1ccc2cc(C[N+]3(CCCCCCCCC[N+]4(Cc5ccc6ccccc6c5)CCCC4)CCCC3)ccc2c1 are 0.541 ± 0.032, 0.565 ± 0.032, 0.601 ± 0.033 and 0.628 ± 0.034.
For the compound `Cc1ccccc1C` [1,2-dimethylbenzene] + O=S(=O)([N-]S(=O)(=O)C(F)(F)F)C(F)(F)F.O=S(=O)([N-]S(=O)(=O)C(F)(F)F)C(F)(F)F.c1ccc2cc(C[N+]3(CCCCCCCCC[N+]4(Cc5ccc6ccccc6c5)CCCC4)CCCC3)ccc2c1, the activity coefficient by setting is: (313 K) 0.84 ± 0.039; (323 K) 0.852 ± 0.039; (333 K) 0.864 ± 0.04; (343 K) 0.894 ± 0.041.
Turning to `CCCC=O` [butanal] + O=S(=O)([N-]S(=O)(=O)C(F)(F)F)C(F)(F)F.O=S(=O)([N-]S(=O)(=O)C(F)(F)F)C(F)(F)F.c1ccc2cc(C[N+]3(CCCCCCCCC[N+]4(Cc5ccc6ccccc6c5)CCCC4)CCCC3)ccc2c1, the activity coefficient runs as follows: (313 K) 0.448 ± 0.03; (323 K) 0.464 ± 0.03; (333 K) 0.487 ± 0.03; (343 K) 0.491 ± 0.03.
On to `CCN(CC)CC` [triethylamine] + O=S(=O)([N-]S(=O)(=O)C(F)(F)F)C(F)(F)F.O=S(=O)([N-]S(=O)(=O)C(F)(F)F)C(F)(F)F.c1ccc2cc(C[N+]3(CCCCCCCCC[N+]4(Cc5ccc6ccccc6c5)CCCC4)CCCC3)ccc2c1, for which the activity coefficient worked out at 0.762 ± 0.098 (313 K), 1.22 ± 0.081 (323 K), 1.35 ± 0.068 (333 K) and 1.45 ± 0.072 (343 K).
The corresponding values for `ClCCCl` [1,2-dichloroethane] + O=S(=O)([N-]S(=O)(=O)C(F)(F)F)C(F)(F)F.O=S(=O)([N-]S(=O)(=O)C(F)(F)F)C(F)(F)F.c1ccc2cc(C[N+]3(CCCCCCCCC[N+]4(Cc5ccc6ccccc6c5)CCCC4)CCCC3)ccc2c1 are 0.568 ± 0.032, 0.569 ± 0.032, 0.596 ± 0.033 and 0.613 ± 0.033.
For `CCCCCCCC` [octane] + O=S(=O)([N-]S(=O)(=O)C(F)(F)F)C(F)(F)F.O=S(=O)([N-]S(=O)(=O)C(F)(F)F)C(F)(F)F.c1ccc2cc(C[N+]3(CCCCCCCCC[N+]4(Cc5ccc6ccccc6c5)CCCC4)CCCC3)ccc2c1 the same measures were 8.51 ± 0.48, 7.57 ± 0.41, 7.4 ± 0.39 and 6.71 ± 0.37.
Regarding `c1ccccc1` [benzene] + O=S(=O)([N-]S(=O)(=O)C(F)(F)F)C(F)(F)F.O=S(=O)([N-]S(=O)(=O)C(F)(F)F)C(F)(F)F.c1ccc2cc(C[N+]3(CCCCCCCCC[N+]4(Cc5ccc6ccccc6c5)CCCC4)CCCC3)ccc2c1, the activity coefficient runs as follows: (313 K) 0.515 ± 0.031; (323 K) 0.517 ± 0.031; (333 K) 0.52 ± 0.031; (343 K) 0.574 ± 0.034.
The corresponding values for `CCCC(C)=O` [pentan-2-one] + O=S(=O)([N-]S(=O)(=O)C(F)(F)F)C(F)(F)F.O=S(=O)([N-]S(=O)(=O)C(F)(F)F)C(F)(F)F.c1ccc2cc(C[N+]3(CCCCCCCCC[N+]4(Cc5ccc6ccccc6c5)CCCC4)CCCC3)ccc2c1 are 0.432 ± 0.029, 0.437 ± 0.029, 0.444 ± 0.03 and 0.448 ± 0.03.
The corresponding values for `Cc1ccccc1` [toluene] + O=S(=O)([N-]S(=O)(=O)C(F)(F)F)C(F)(F)F.O=S(=O)([N-]S(=O)(=O)C(F)(F)F)C(F)(F)F.c1ccc2cc(C[N+]3(CCCCCCCCC[N+]4(Cc5ccc6ccccc6c5)CCCC4)CCCC3)ccc2c1 are 0.714 ± 0.035, 0.721 ± 0.035, 0.723 ± 0.036 and 0.727 ± 0.036.
Turning to `CCCCCCC` [heptane] + O=S(=O)([N-]S(=O)(=O)C(F)(F)F)C(F)(F)F.O=S(=O)([N-]S(=O)(=O)C(F)(F)F)C(F)(F)F.c1ccc2cc(C[N+]3(CCCCCCCCC[N+]4(Cc5ccc6ccccc6c5)CCCC4)CCCC3)ccc2c1, the activity coefficient is 6.72 ± 0.38 (313 K), 5.97 ± 0.33 (323 K), 5.44 ± 0.31 (333 K) and 4.65 ± 0.29 (343 K).
As for `O=Cc1ccccc1` [benzaldehyde] + O=S(=O)([N-]S(=O)(=O)C(F)(F)F)C(F)(F)F.O=S(=O)([N-]S(=O)(=O)C(F)(F)F)C(F)(F)F.c1ccc2cc(C[N+]3(CCCCCCCCC[N+]4(Cc5ccc6ccccc6c5)CCCC4)CCCC3)ccc2c1, the activity coefficient worked out at 0.997 ± 0.044 (313 K), 0.997 ± 0.044 (323 K), 0.998 ± 0.044 (333 K) and 0.999 ± 0.044 (343 K).
On to `C1COCCO1` [1,4-dioxane] + O=S(=O)([N-]S(=O)(=O)C(F)(F)F)C(F)(F)F.O=S(=O)([N-]S(=O)(=O)C(F)(F)F)C(F)(F)F.c1ccc2cc(C[N+]3(CCCCCCCCC[N+]4(Cc5ccc6ccccc6c5)CCCC4)CCCC3)ccc2c1, for which the activity coefficient came to 0.382 ± 0.029 (313 K), 0.397 ± 0.029 (323 K), 0.413 ± 0.03 (333 K) and 0.451 ± 0.031 (343 K).
Turning to `O=C1CCCC1` [cyclopentanone] + O=S(=O)([N-]S(=O)(=O)C(F)(F)F)C(F)(F)F.O=S(=O)([N-]S(=O)(=O)C(F)(F)F)C(F)(F)F.c1ccc2cc(C[N+]3(CCCCCCCCC[N+]4(Cc5ccc6ccccc6c5)CCCC4)CCCC3)ccc2c1, the activity coefficient (313 K) turned out to be 0.318 ± 0.028, the activity coefficient (323 K) was found to be 0.324 ± 0.028, the activity coefficient (333 K) was found to be 0.33 ± 0.028 and the activity coefficient (343 K) is 0.347 ± 0.028.
`CC(C)O` [propan-2-ol] + O=S(=O)([N-]S(=O)(=O)C(F)(F)F)C(F)(F)F.O=S(=O)([N-]S(=O)(=O)C(F)(F)F)C(F)(F)F.c1ccc2cc(C[N+]3(CCCCCCCCC[N+]4(Cc5ccc6ccccc6c5)CCCC4)CCCC3)ccc2c1: the activity coefficient (313 K) was found to be 1.21 ± 0.061, the activity coefficient (323 K) amounted to 1.09 ± 0.051, the activity coefficient (333 K) was determined as 1.05 ± 0.048 and the activity coefficient (343 K) was found to be 0.992 ± 0.045.
